Experiments:
[1] = target: T1, HCV NS5B (Hepatitis C virus genotype 1b, UniProt Q9WMX2); assay: HCV NS5B RdRp enzyme assay (preincubation protocol); format: biochemical; settings: Table 1b, read-out: IC50*
T1 construct: The protein was expressed with an 18 amino acid C-terminal truncation to enhance the solubility; made in house; host or cells: E. coli BL21 (DE3), pET21a
Method in brief: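 Preincubation format: enzyme (14 nM, genotype 1b, 18-residue C-terminal truncation) meets diluted compound first; reaction started with bead-bound biotinylated dT12 primer, polyA template 0.2 nM and 0.29 μM 3H-UTP. Run 4 h, 30 °C in Hepes pH 7.5; scintillation proximity signal; IC50 fitted from seven inhibitor levels.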

[2] = test system: HCV replicon; assay: HCV replicon FRET assay; format: cell-based; settings: Hepatitis C virus, Table 1b; FRET assay; read-out: EC50*
Method in brief: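 HCV replicon cells, with or without Renilla luciferase reporter, incubated with titrated compounds at 37 °C; Alamar blue read for cytotoxicity. NS3 protease activity read from lysates with 20 μM EDANS/DABCYL FRET peptide (340/490 nm, kinetic), or by Dual-Glo luciferase. Background from highest protease-inhibitor wells; EC50 = 50% signal reduction.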

T1 sequence (Q9WMX2 2420-2992): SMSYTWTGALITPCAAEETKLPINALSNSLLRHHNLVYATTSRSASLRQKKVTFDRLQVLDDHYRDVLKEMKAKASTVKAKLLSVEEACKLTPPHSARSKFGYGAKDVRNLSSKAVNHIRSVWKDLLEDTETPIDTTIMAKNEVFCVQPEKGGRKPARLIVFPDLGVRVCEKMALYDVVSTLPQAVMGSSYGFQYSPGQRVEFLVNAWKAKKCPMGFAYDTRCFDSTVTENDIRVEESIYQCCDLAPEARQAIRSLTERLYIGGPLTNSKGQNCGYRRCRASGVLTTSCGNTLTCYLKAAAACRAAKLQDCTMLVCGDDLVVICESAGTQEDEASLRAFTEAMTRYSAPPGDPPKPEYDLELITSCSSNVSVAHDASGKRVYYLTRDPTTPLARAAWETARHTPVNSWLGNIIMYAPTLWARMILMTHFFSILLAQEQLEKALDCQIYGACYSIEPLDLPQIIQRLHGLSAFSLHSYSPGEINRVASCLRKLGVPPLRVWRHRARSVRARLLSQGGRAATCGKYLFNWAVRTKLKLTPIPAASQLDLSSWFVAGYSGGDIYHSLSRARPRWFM

Structure (SMILES) | IC50 [1] | EC50 [2]
COc1ccc2c(c1)C=C(C(=O)N(C)[C@H](C(=O)O)C(C)C)Cn1c-2c(C2CCCCC2)c2ccc(C(=O)NS(=O)(=O)N(C)C)cc21 | < 20 nM | 30 to 1000 nM
COc1ccc2c(c1)C=C(C(=O)N(C)[C@H](C(=O)N(C)C)C(C)C)Cn1c-2c(C2CCCCC2)c2ccc(C(=O)NS(=O)(=O)N(C)C)cc21 | < 20 nM | 30 to 1000 nM
COc1ccc2c(c1)C=C(C(=O)N(C)[C@H](C(=O)N1CCOCC1)C(C)C)Cn1c-2c(C2CCCCC2)c2ccc(C(=O)NS(=O)(=O)N(C)C)cc21 | 20 to 1000 nM | 30 to 1000 nM
COc1ccc2c(c1)C=C(C(=O)N(C)Cc1ccco1)Cn1c-2c(C2CCCCC2)c2ccc(C(=O)NS(=O)(=O)N(C)C)cc21 | < 20 nM | 30 to 1000 nM
COc1ccc2c(c1)C=C(C(=O)N(C)Cc1nccs1)Cn1c-2c(C2CCCCC2)c2ccc(C(=O)NS(=O)(=O)N(C)C)cc21 | < 20 nM | 30 to 1000 nM
COc1ccc2c(c1)C=C(C(=O)N(CC(=O)N(C)C)CC(=O)N(C)C)Cn1c-2c(C2CCCCC2)c2ccc(C(=O)NS(=O)(=O)N(C)C)cc21 | < 20 nM | 30 to 1000 nM
COc1ccc2c(c1)C=C(C(=O)N(C)[C@H](C)C(=O)O)Cn1c-2c(C2CCCCC2)c2ccc(C(=O)NS(=O)(=O)N(C)C)cc21 | 20 to 1000 nM | 30 to 1000 nM
COC(=O)c1ccc2c(C3CCCCC3)c3n(c2c1)CC(C(=O)N1CCOC(CO)C1)=Cc1c(OC)cccc1-3 (stereo not shown) | > 12500 nM | > 10000 nM
COc1cccc2c1C=C(C(=O)N1CCOC(CO)C1)Cn1c-2c(C2CCCCC2)c2ccc(C(=O)O)cc21 (stereo not shown) | 20 to 1000 nM | 30 to 1000 nM
COC(=O)c1ccc2c(C3CCCCC3)c3n(c2c1)CC(C(=O)N1C[C@@H](C)N[C@@H](C)C1)=Cc1c(OC)cccc1-3 | 20 to 1000 nM | > 370 nM
COc1cccc2c1C=C(C(=O)N1C[C@@H](C)N[C@@H](C)C1)Cn1c-2c(C2CCCCC2)c2ccc(C(=O)O)cc21 | 20 to 1000 nM | 30 to 1000 nM
CN(C)C(=O)CN(C)C(=O)C1=Cc2ccccc2-c2c(C3CCCCC3)c3ccc(C(=O)Nc4ccccn4)cc3n2C1 | 20 to 1000 nM | 1000 to 10000 nM
COc1ccc2c(c1)C=C(C(=O)N(C)CC(=O)N(C)C)Cn1c-2c(C2CCCCC2)c2ccc(C(=O)N(C)CC(=O)N(C)C)cc21 | 20 to 1000 nM | 1000 to 10000 nM
COc1ccc2c(c1)C=C(C(=O)N1CC(NC(=O)OC(C)(C)C)C1)Cn1c-2c(C2CCCCC2)c2ccc(C(=O)NS(=O)(=O)N(C)C)cc21 | 20 to 1000 nM | 30 to 1000 nM
COc1ccc2c(c1)C=C(C(=O)N1CCN(CCO)CC1)Cn1c-2c(C2CCCCC2)c2ccc(C(=O)NS(=O)(=O)N(C)C)cc21 | 20 to 1000 nM | 30 to 1000 nM
COc1ccc2c(c1)C=C(C(=O)N1CCC(CO)CC1)Cn1c-2c(C2CCCCC2)c2ccc(C(=O)NS(=O)(=O)N(C)C)cc21 | 20 to 1000 nM | 30 to 1000 nM
COc1ccc2c(c1)C=C(C(=O)N1CC(O)C1)Cn1c-2c(C2CCCCC2)c2ccc(C(=O)NS(=O)(=O)N(C)C)cc21 | 20 to 1000 nM | 30 to 1000 nM
COc1ccc2c(c1)C=C(C(=O)N1CC(OP(=O)(O)O)C1)Cn1c-2c(C2CCCCC2)c2ccc(C(=O)NS(=O)(=O)N(C)C)cc21 | 20 to 1000 nM | 1000 to 10000 nM
COc1ccc2c(c1)C=C(C(=O)N1CC(OP(=O)(OC(C)(C)C)OC(C)(C)C)C1)Cn1c-2c(C2CCCCC2)c2ccc(C(=O)NS(=O)(=O)N(C)C)cc21 | 20 to 1000 nM | 30 to 1000 nM
COc1ccc2c(c1)C=C(C(=O)N1CC(N)C1)Cn1c-2c(C2CCCCC2)c2ccc(C(=O)NS(=O)(=O)N(C)C)cc21 | 20 to 1000 nM | 30 to 1000 nM
COc1ccc2c(c1)CC(C(=O)N1CCN(CCO)CC1)Cn1c-2c(C2CCCCC2)c2ccc(C(=O)NS(=O)(=O)N(C)C)cc21 (stereo not shown) | 20 to 1000 nM | 30 to 1000 nM
COc1ccc2c(c1)CC(C(=O)N1CCC(CO)CC1)Cn1c-2c(C2CCCCC2)c2ccc(C(=O)NS(=O)(=O)N(C)C)cc21 (stereo not shown) | 20 to 1000 nM | 30 to 1000 nM
COc1ccc2c(c1)C=C(C(=O)N1CC(CO)C1)Cn1c-2c(C2CCCCC2)c2ccc(C(=O)NS(=O)(=O)N(C)C)cc21 | 20 to 1000 nM | 30 to 1000 nM
COc1ccc2c(c1)C=C(C(=O)N1C[C@@H](C)N(CC3CC3)[C@@H](C)C1)Cn1c-2c(C2CCCCC2)c2ccc(C(=O)NS(=O)(=O)N(C)C)cc21 | 20 to 1000 nM | 30 to 1000 nM
COc1ccc2c(c1)C[C@H](NC(=O)N(C)CC(=O)N(C)C)Cn1c-2c(C2CCCCC2)c2ccc(C(=O)NS(=O)(=O)N(C)C)cc21 | 20 to 1000 nM | 30 to 1000 nM
COc1ccc2c(c1)C[C@@H](NC(=O)N(C)CC(=O)N(C)C)Cn1c-2c(C2CCCCC2)c2ccc(C(=O)NS(=O)(=O)N(C)C)cc21 | 20 to 1000 nM | 30 to 1000 nM
COc1ccc2c(c1)CC(C(=O)N1CC(CO)C1)Cn1c-2c(C2CCCCC2)c2ccc(C(=O)NS(=O)(=O)N(C)C)cc21 (stereo not shown) | 20 to 1000 nM | 30 to 1000 nM

Structure (SMILES) | IC50 [1] | EC50 [2]
COc1ccc2c(c1)C=C(C(=O)N1CC(N(C)C)C1)Cn1c-2c(C2CCCCC2)c2ccc(C(=O)NS(=O)(=O)N(C)C)cc21 | 20 to 1000 nM | 30 to 1000 nM
COc1ccc2c(c1)CC(NC(=O)N(C)CC1CCCCO1)Cn1c-2c(C2CCCCC2)c2ccc(C(=O)NS(=O)(=O)N(C)C)cc21 (stereo not shown) | 20 to 1000 nM | 30 to 1000 nM
COc1ccc2c(c1)CC(NC(=O)N(C)CC(N)=O)Cn1c-2c(C2CCCCC2)c2ccc(C(=O)NS(=O)(=O)N(C)C)cc21 (stereo not shown) | 20 to 1000 nM | 30 to 1000 nM
COc1ccc2c(c1)CC(NC(=O)N1CCC(C(N)=O)C1)Cn1c-2c(C2CCCCC2)c2ccc(C(=O)NS(=O)(=O)N(C)C)cc21 (stereo not shown) | 20 to 1000 nM | 30 to 1000 nM
COc1ccc2c(c1)CC(NC(=O)N(C)CC(=O)NC1CC1)Cn1c-2c(C2CCCCC2)c2ccc(C(=O)NS(=O)(=O)N(C)C)cc21 (stereo not shown) | 20 to 1000 nM | 30 to 1000 nM
COc1ccc2c(c1)CC(NC(=O)N1CC(OC)C1)Cn1c-2c(C2CCCCC2)c2ccc(C(=O)NS(=O)(=O)N(C)C)cc21 (stereo not shown) | 20 to 1000 nM | 30 to 1000 nM
COc1ccc2c(c1)CC(NC(=O)N(C)CC(=O)N1CCN(C)CC1)Cn1c-2c(C2CCCCC2)c2ccc(C(=O)NS(=O)(=O)N(C)C)cc21 (stereo not shown) | 20 to 1000 nM | 30 to 1000 nM
COc1ccc2c(c1)CC(NC(=O)N1CC(O)C1)Cn1c-2c(C2CCCCC2)c2ccc(C(=O)NS(=O)(=O)N(C)C)cc21 (stereo not shown) | 20 to 1000 nM | 30 to 1000 nM
COc1ccc2c(c1)CC(NC(=O)N1C[C@@H](C)N(C)[C@@H](C)C1)Cn1c-2c(C2CCCCC2)c2ccc(C(=O)NS(=O)(=O)N(C)C)cc21 (stereo partly shown) | 20 to 1000 nM | 30 to 1000 nM
COc1ccc2c(c1)C=C(C(=O)N1CCOC(CF)C1)Cn1c-2c(C2CCCCC2)c2ccc(C(=O)NS(=O)(=O)N(C)C)cc21 (stereo not shown) | 20 to 1000 nM | 30 to 1000 nM
COc1cccc2c1C=C(C(=O)N1CCOC(CF)C1)Cn1c-2c(C2CCCCC2)c2ccc(C(=O)NS(=O)(=O)N(C)C)cc21 (stereo not shown) | 20 to 1000 nM | 30 to 1000 nM
COc1ccc2c(c1)C=C(C(=O)N1CCN(c3cnccn3)CC1)Cn1c-2c(C2CCCCC2)c2ccc(C(=O)NS(=O)(=O)N(C)C)cc21 | 20 to 1000 nM | 30 to 1000 nM
COc1ccc2c(c1)CC(C(=O)N1CCN(C(=O)C(C)(C)O)CC1)Cn1c-2c(C2CCCCC2)c2ccc(C(=O)NS(=O)(=O)N(C)C)cc21 (stereo not shown) | 20 to 1000 nM | 30 to 1000 nM
COc1ccc2c(c1)C=C(C(=O)N1CCN(C(=O)C3(O)CC3)CC1)Cn1c-2c(C2CCCCC2)c2ccc(C(=O)NS(=O)(=O)N(C)C)cc21 | 20 to 1000 nM | 30 to 1000 nM
COc1ccc2c(c1)C=C(C(=O)N1CC(C(=O)N(C)C)C1)Cn1c-2c(C2CCCCC2)c2ccc(C(=O)NS(=O)(=O)N(C)C)cc21 | 20 to 1000 nM | 30 to 1000 nM
COc1ccc2c(c1)C=C(C(=O)N1CC(C(=O)N3CCOCC3)C1)Cn1c-2c(C2CCCCC2)c2ccc(C(=O)NS(=O)(=O)N(C)C)cc21 | 20 to 1000 nM | 30 to 1000 nM
COc1ccc2c(c1)CC(C(=O)N1CCN(C(=O)C3(O)CC3)CC1)Cn1c-2c(C2CCCCC2)c2ccc(C(=O)NS(=O)(=O)N(C)C)cc21 (stereo not shown) | 20 to 1000 nM | 30 to 1000 nM
COc1ccc2c(c1)C=C(C(=O)N[C@@](C)(CO)C(=O)N(C)C)Cn1c-2c(C2CCCCC2)c2ccc(C(=O)NS(=O)(=O)N(C)C)cc21 | 20 to 1000 nM | 30 to 1000 nM
COc1ccc2c(c1)C=C(C(=O)N1C[C@@H](C)O[C@@H](C)C1)Cn1c-2c(C2CCCCC2)c2ccc(C(=O)NS(=O)(=O)N3CCCC3)cc21 | 20 to 1000 nM | 30 to 1000 nM
COc1ccc2c(c1)C=C(C(=O)N1CCOCC1)Cn1c-2c(C2CCCCC2)c2ccc(C(=O)NS(=O)(=O)N3CCC3)cc21 | 20 to 1000 nM | 30 to 1000 nM
COc1ccc2c(c1)C=C(C(=O)N1CCOCC1)Cn1c-2c(C2CCCCC2)c2ccc(C(=O)NS(=O)(=O)N3CCCC3)cc21 | 20 to 1000 nM | 30 to 1000 nM
COc1ccc2c(c1)C=C(C(=O)N1C[C@@H](C)O[C@@H](C)C1)Cn1c-2c(C2CCCCC2)c2ccc(C(=O)NS(=O)(=O)N3CCC3)cc21 | 20 to 1000 nM | 30 to 1000 nM
COc1ccc2c(c1)C=C(C(=O)N1CCOCC1)Cn1c-2c(C2CCCCC2)c2ccc(C(=O)NS(=O)(=O)c3ccc(C)cn3)cc21 | 20 to 1000 nM | 30 to 1000 nM
COc1ccc2c(c1)C=C(C(=O)N1C[C@@H](C)O[C@@H](C)C1)Cn1c-2c(C2CCCCC2)c2ccc(C(=O)NS(=O)(=O)c3ccc(C)cn3)cc21 | 20 to 1000 nM | 30 to 1000 nM
COC[C@H]1CN(C(=O)C2=Cc3cc(OC)ccc3-c3c(C4CCCCC4)c4ccc(C(=O)NS(=O)(=O)N(C)C)cc4n3C2)CCO1 | 20 to 1000 nM | 30 to 1000 nM
COC[C@@H]1CN(C(=O)C2=Cc3cc(OC)ccc3-c3c(C4CCCCC4)c4ccc(C(=O)NS(=O)(=O)N(C)C)cc4n3C2)CCO1 | 20 to 1000 nM | 30 to 1000 nM
